Laboratory results reported in US20260234159A1, “SMALL MOLECULE TREATMENT OF FATTY LIVER DISEASE AND HCC” (SCANDIEDGE THERAPEUTICS AB, priority 2023, published 2026).
Where two headings read alike, the source gives them in different places.

Legend:
HepG2 cells = assay: Triglyceride (TAG) measurement assay, one week steatosis model; type: cell-based, human; settings: for activity at 10 µM: Homo sapiens
How it was run: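 HepG2 cells steatosis-induced for one week in high-glucose DMEM/10% FBS with 10 μg/ml insulin and 10 μM T0901317, media changed at days 0, 3 and 5, with 10 μM test compound throughout. Triglyceride measured colorimetrically (OD 570 nm); viability by MTT.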

[1] = In vivo toxicological study in rats: clinical observations and body weight; settings: 300 mg/kg oral administration
Procedure: Forty-two male and forty-two female rats of the Wistar strain were allocated to the study. Three groups of three males and three females were given doses of 30, 100 and 300 mg/kg of target compounds (Table 8). The vehicle was 1.5 w/w % HPMC, 1.5 w/w % PS80 in 10 mM PBS, pH 7 and dose volume were 5 mL/kg.
The animals were acclimatised at least 14 day prior to the study and exposed to a 12 hours light, 12 hours dark light cycle. The formulations were administered via oral gavage. Administration occurred once daily in the morning for seven consecutive days.
A check of animal health and welfare status was done at least once on working days and weekend days.
Body weights were recorded the week before and within 24 hours before start of dosing, on Day 3 and on necropsy Day 8.

[2] = In vivo toxicological study in rats: haematology; design: species or system rats of the Wistar strain
Procedure: Forty-two male and forty-two female rats of the Wistar strain were allocated to the study. Three groups of three males and three females were given doses of 30, 100 and 300 mg/kg of target compounds (Table 8). The vehicle was 1.5 w/w % HPMC, 1.5 w/w % PS80 in 10 mM PBS, pH 7 and dose volume were 5 mL/kg. The animals were acclimatised at least 14 day prior to the study and exposed to a 12 hours light, 12 hours dark light cycle. The formulations were administered via oral gavage. Administration occurred once daily in the morning for seven consecutive days. Blood for scheduled haematology and plasma chemistry were taken at necropsy. For plasma chemistry, 0.6 ml blood (lithium heparin) per animal and for haematology, 0.5 ml blood (K2EDTA) per animal. The blood and plasma were analysed using Exigo analyzer and Vetscan equipment. Blood was analysed within 60 min of sampling. On the morning of analysis, the Exigo analyzer was checked against a reference sample provided by the manufacturer, and a control sample analysis cycle was performed (Table 9).

[3] = 168 h, HepG2, 10 μM, one week steatosis induce media, Control 100.00, read-out: TAG (%)
[4] = HepG2, 168 h, ratio between TAG content and cell viability, Control 100.0, read-out: TAG/cell viability
[5] = female, 30 mg/kg oral daily 7 d
[6] = female, 100 mg/kg oral daily 7 d
[7] = female, 300 mg/kg oral daily 7 d

N#Cc1c(NC(=O)c2cccc3ccccc23)sc2c1CCCC2 [JNK-IN-5A, N-(3-cyano-4,5,6,7-tetrahydrobenzo[b]thiophen-2-yl)-1-naphthamide]
activity at 10 µM (HepG2 cells; [3]): 33%
activity at 10 µM (HepG2 cells; [4]): 58.4%

COc1ccc(C(=O)Nc2sc3c(c2C#N)CCCCC3)cc1OC [PKL-A135, N-(3-cyano-5,6,7,8-tetrahydro-4H-cyclohepta[b]thiophen-2-yl)-3,4-dimethoxy-benzamide]
tolerability (adverse clinical signs, body weight, clinical pathology parameters) [1]: well tolerated
activity at 10 µM (HepG2 cells; [3]): 49.1%
activity at 10 µM (HepG2 cells; [4]): 77.6%
GRAN [2, 5]: 0.97 10^9/l
HCT [2, 5]: 41.7%
HGB [2, 5]: 14.2 g/dL
LYM [2, 5]: 5.4 10^9/l
MCH [2, 5]: 19.5 pg
MCHC [2, 5]: 34.1 g/dL
MCV [2, 5]: 57.4 fL
MONO [2, 5]: 0.17 10^9/l
PLT [2, 5]: 1014 10^9/l
RBC [2, 5]: 7.26 10^12/l
RDW % [2, 5]: 14.2%
WBC [2, 5]: 6.6 10^9/l
GRAN [2, 6]: 1.33 10^9/l
HCT [2, 6]: 42.1%
HGB [2, 6]: 14.4 g/dL
LYM [2, 6]: 6.7 10^9/l
MCH [2, 6]: 19.9 pg
MCHC [2, 6]: 34.1 g/dL
MCV [2, 6]: 58.4 fL
MONO [2, 6]: 0.27 10^9/l
PLT [2, 6]: 978 10^9/l
RBC [2, 6]: 7.21 10^12/l
RDW % [2, 6]: 13.7%
WBC [2, 6]: 8.3 10^9/l
GRAN [2, 7]: 1.10 10^9/l
HCT [2, 7]: 42.8%
HGB [2, 7]: 14.7 g/dL
LYM [2, 7]: 5.1 10^9/l
MCH [2, 7]: 20.8 pg
MCHC [2, 7]: 34.2 g/dL
MCV [2, 7]: 60.8 fL
MONO [2, 7]: 0.20 10^9/l
PLT [2, 7]: 1011 10^9/l
RBC [2, 7]: 7.04 10^12/l
RDW % [2, 7]: 13.8%
WBC [2, 7]: 6.4 10^9/l
GRAN ([2]; male, 30 mg/kg oral daily 7 d): 1.83 10^9/l
HCT ([2]; male, 30 mg/kg oral daily 7 d): 44.3%
HGB ([2]; male, 30 mg/kg oral daily 7 d): 15 g/dL
LYM ([2]; male, 30 mg/kg oral daily 7 d): 6.5 10^9/l
MCH ([2]; male, 30 mg/kg oral daily 7 d): 19.7 pg
MCHC ([2]; male, 30 mg/kg oral daily 7 d): 33.9 g/dL
MCV ([2]; male, 30 mg/kg oral daily 7 d): 58.2 fL
MONO ([2]; male, 30 mg/kg oral daily 7 d): 0.30 10^9/l
PLT ([2]; male, 30 mg/kg oral daily 7 d): 841 10^9/l
RBC ([2]; male, 30 mg/kg oral daily 7 d): 7.62 10^12/l
RDW % ([2]; male, 30 mg/kg oral daily 7 d): 14.1%
WBC ([2]; male, 30 mg/kg oral daily 7 d): 8.6 10^9/l
GRAN ([2]; male, 100 mg/kg oral daily 7 d): 1.17 10^9/l
HCT ([2]; male, 100 mg/kg oral daily 7 d): 43.2%
HGB ([2]; male, 100 mg/kg oral daily 7 d): 14.6 g/dL
LYM ([2]; male, 100 mg/kg oral daily 7 d): 6.1 10^9/l
MCH ([2]; male, 100 mg/kg oral daily 7 d): 19.6 pg
MCHC ([2]; male, 100 mg/kg oral daily 7 d): 33.7 g/dL
MCV ([2]; male, 100 mg/kg oral daily 7 d): 58.1 fL
MONO ([2]; male, 100 mg/kg oral daily 7 d): 0.17 10^9/l
PLT ([2]; male, 100 mg/kg oral daily 7 d): 815 10^9/l
RBC ([2]; male, 100 mg/kg oral daily 7 d): 7.43 10^12/l
RDW % ([2]; male, 100 mg/kg oral daily 7 d): 14.4%
WBC ([2]; male, 100 mg/kg oral daily 7 d): 7.4 10^9/l
GRAN ([2]; male, 300 mg/kg oral daily 7 d): 1.13 10^9/l
HCT ([2]; male, 300 mg/kg oral daily 7 d): 43.8%
HGB ([2]; male, 300 mg/kg oral daily 7 d): 14.9 g/dL
LYM ([2]; male, 300 mg/kg oral daily 7 d): 6.2 10^9/l
MCH ([2]; male, 300 mg/kg oral daily 7 d): 20.7 pg
MCHC ([2]; male, 300 mg/kg oral daily 7 d): 34 g/dL
MCV ([2]; male, 300 mg/kg oral daily 7 d): 60.9 fL
MONO ([2]; male, 300 mg/kg oral daily 7 d): 0.20 10^9/l
PLT ([2]; male, 300 mg/kg oral daily 7 d): 924 10^9/l
RBC ([2]; male, 300 mg/kg oral daily 7 d): 7.20 10^12/l
RDW % ([2]; male, 300 mg/kg oral daily 7 d): 14.0%
WBC ([2]; male, 300 mg/kg oral daily 7 d): 7.5 10^9/l

COc1ccccc1NC(=O)N1CCc2c(sc(NC(=O)c3cccc4ccccc34)c2C#N)C1 [PKL-A152]
tolerability (adverse clinical signs, body weight, clinical pathology parameters) [1]: well tolerated
ratio between TAG content and cell viability (HepG2 cells): low ratio between TAG content and cell viability
activity at 10 µM (HepG2 cells; [3]): 10.8%
activity at 10 µM (HepG2 cells; [4]): 24.5%
TAG/cell viability (HepG2 cells; ratio as printed in text with %): 24.5%
GRAN [2, 5]: 1.00 10^9/l
HCT [2, 5]: 41.5%
HGB [2, 5]: 14.1 g/dL
LYM [2, 5]: 5.6 10^9/l
MCH [2, 5]: 19.5 pg
MCHC [2, 5]: 34.1 g/dL
MCV [2, 5]: 57.2 fL
MONO [2, 5]: 0.17 10^9/l
PLT [2, 5]: 1089 10^9/l
RBC [2, 5]: 7.24 10^12/l
RDW % [2, 5]: 13.9%
WBC [2, 5]: 6.8 10^9/l
GRAN [2, 6]: 1.20 10^9/l
HCT [2, 6]: 42.0%
HGB [2, 6]: 14.3 g/dL
LYM [2, 6]: 5.7 10^9/l
MCH [2, 6]: 19.5 pg
MCHC [2, 6]: 34 g/dL
MCV [2, 6]: 57.4 fL
MONO [2, 6]: 0.17 10^9/l
PLT [2, 6]: 1122 10^9/l
RBC [2, 6]: 7.32 10^12/l
RDW % [2, 6]: 14.0%
WBC [2, 6]: 7.1 10^9/l
GRAN [2, 7]: 1.03 10^9/l
HCT [2, 7]: 42.9%
HGB [2, 7]: 14.7 g/dL
LYM [2, 7]: 4.8 10^9/l
MCH [2, 7]: 19.7 pg
MCHC [2, 7]: 34.1 g/dL
MCV [2, 7]: 57.7 fL
MONO [2, 7]: 0.23 10^9/l
PLT [2, 7]: 1062 10^9/l
RBC [2, 7]: 7.43 10^12/l
RDW % [2, 7]: 14.1%
WBC [2, 7]: 6.0 10^9/l
GRAN ([2]; male, 30 mg/kg oral daily 7 d): 1.50 10^9/l
HCT ([2]; male, 30 mg/kg oral daily 7 d): 46.3%
HGB ([2]; male, 30 mg/kg oral daily 7 d): 15.6 g/dL
LYM ([2]; male, 30 mg/kg oral daily 7 d): 5.9 10^9/l
MCH ([2]; male, 30 mg/kg oral daily 7 d): 19.6 pg
MCHC ([2]; male, 30 mg/kg oral daily 7 d): 33.8 g/dL
MCV ([2]; male, 30 mg/kg oral daily 7 d): 58.0 fL
MONO ([2]; male, 30 mg/kg oral daily 7 d): 0.23 10^9/l
PLT ([2]; male, 30 mg/kg oral daily 7 d): 922 10^9/l
RBC ([2]; male, 30 mg/kg oral daily 7 d): 7.97 10^12/l
RDW % ([2]; male, 30 mg/kg oral daily 7 d): 14.2%
WBC ([2]; male, 30 mg/kg oral daily 7 d): 7.7 10^9/l
GRAN ([2]; male, 100 mg/kg oral daily 7 d): 1.47 10^9/l
HCT ([2]; male, 100 mg/kg oral daily 7 d): 44.7%
HGB ([2]; male, 100 mg/kg oral daily 7 d): 15.1 g/dL
LYM ([2]; male, 100 mg/kg oral daily 7 d): 6.9 10^9/l
MCH ([2]; male, 100 mg/kg oral daily 7 d): 19.8 pg
MCHC ([2]; male, 100 mg/kg oral daily 7 d): 33.8 g/dL
MCV ([2]; male, 100 mg/kg oral daily 7 d): 58.8 fL
MONO ([2]; male, 100 mg/kg oral daily 7 d): 0.17 10^9/l
PLT ([2]; male, 100 mg/kg oral daily 7 d): 990 10^9/l
RBC ([2]; male, 100 mg/kg oral daily 7 d): 7.63 10^12/l
RDW % ([2]; male, 100 mg/kg oral daily 7 d): 14.6%
WBC ([2]; male, 100 mg/kg oral daily 7 d): 8.5 10^9/l
GRAN ([2]; male, 300 mg/kg oral daily 7 d): 1.17 10^9/l
HCT ([2]; male, 300 mg/kg oral daily 7 d): 45.6%
HGB ([2]; male, 300 mg/kg oral daily 7 d): 15.4 g/dL
LYM ([2]; male, 300 mg/kg oral daily 7 d): 5.8 10^9/l
MCH ([2]; male, 300 mg/kg oral daily 7 d): 19.7 pg
MCHC ([2]; male, 300 mg/kg oral daily 7 d): 33.8 g/dL
MCV ([2]; male, 300 mg/kg oral daily 7 d): 58.4 fL
MONO ([2]; male, 300 mg/kg oral daily 7 d): 0.17 10^9/l
PLT ([2]; male, 300 mg/kg oral daily 7 d): 1046 10^9/l
RBC ([2]; male, 300 mg/kg oral daily 7 d): 7.80 10^12/l
RDW % ([2]; male, 300 mg/kg oral daily 7 d): 14.4%
WBC ([2]; male, 300 mg/kg oral daily 7 d): 7.2 10^9/l
